Measurements as given in US20180112193A1, “CSF1 THERAPEUTICS” (University Court Of The University Of Edinburgh, priority 2013, published 2018).

B1: CSF-1: unmodified recombinant pig CSF-1 protein, non-fusion comparator (protein)
chain: SENCSHMIGDGHLKVLQQLIDSQMETSCQIAFEFVDQEQLTDPVCYLKKAFLQVQDILDETMRFRDNTPNANVIVQLQELSLRLNSCFTKDYEEQDKACVRTFYETPLQLLEKIKNVFNETKNLLKKDWNIFSKNCNNSFAKCSSQDVVTKPDCN

Columns and labels:
[1] = tested on: male C57BI6 mice; assay: Paracetamol intoxication in mice; format: in vivo, mouse; settings: CSF1 receptor blockade, 180 mg/kg via gavage; Day 3 post injury
Procedure: (§1) Forty-eight male C57BI6 mice aged 10-12 weeks underwent either 2/3 partial hepatectomy, paracetamol intoxication or chronic liver injury plus 2/3 partial hepatectomy. 2/3 partial hepatectomy was performed by ligating the left lobe and left and right median lobes. Paracetamol intoxication was performed by intraperitoneal administration of 350 mg/kg paracetamol dissolved in phosphate buffered saline (PBS). Chronic liver injury plus 2/3 partial hepatectomy was performed by eight weeks intraperitoneal carbon tetrachloride administration 1 mcl/g twice weekly dissolved in olive oil followed by ⅔ partial hepatectomy as described above. […] Control mice (n=8 per injury model) received subcutaneous PBS of appropriate volume. All mice were culled on day 4 following injury (partial hepatectomy or paracetamol intoxication).
(§2) Following a midline laparotomy the liver was excised and weighed. Liver weight to body weight ratio was calculated and expressed as a percentage. Livers were fixed in 4% formalin overnight then transferred to 70% ethanol. Livers were then embedded in paraffin blocks and 4 μm sections cut. Immunohistochemistry for Ki67 (a marker of cellular proliferation expressed throughout the cell cycle) was performed following heat mediated antigen retrieval in Tris/EDTA solution at pH9. Hepatocyte proliferation was quantified by counting ki67 positive hepatocytes in 20 high powered fields (400×) per animal and the mean calculated.
Hepatic CSF1 gene expression was assessed in mice following paracetamol intoxication (350 mg/kg paracetamol IP following overnight fast) at time points up to 4 days, showing peak CSF1 gene expression at day 2 (FIG. 14A).

[2] = tested on: male C57BI6 mice; assay: 2/3 partial hepatectomy in mice; format: in vivo, mouse
Procedure: as §1, with “All mice were culled on day 4 following injury (partial hepatectomy or paracetamol intoxication).” left out
as §2, with “calculated. […]” for “calculated.”

[3] = Pig PK (plasma ELISA); format: in vivo; settings: weaner pigs; 0.5 mg/kg SC
Procedure: Porcine CSF-1 Fc-fusion plasma levels were detected using an in-house developed conventional sandwich ELISA utilizing commercially available antibodies. Capture antibody was Abcam ab9693 (0.3 μg/mL) and detection antibody was Rabbit anti-pig IgG (Fc) biotinylated Alpha Diagnostic 90440 (1:5000 dilution). Standard protein was generated and purified in-house (lot 2/24/11 JAS). Standards were added to each plate along with the samples resulting in an 11 point standard range of 2700 ng/mL to […]. This allowed for quantitation of each sample to a standard curve on every assay plate. Assay detection was done using Pierce High Sensitivity Streptavidin-HRP (1:10,000 dilution) and TMB Microwell Peroxidase Substrate System solution (KPL).
Weaner age barrows (<14 kg) were assigned to three treatment groups receiving a single intravenous (IV) or subcutaneous (SC) dose as follows. Three pigs received 0.5 mg/kg CSF-1 non-fusion dosed SC. Two pigs received 1.2 mg/kg CSF-1:Fc fusion dosed IV. Two pigs received 1.2 mg/kg CSF-1:Fc dosed SC. One ml plasma samples were obtained via the V. jugularis in EDTA anticoagulant tubes and placed on ice until centrifuged. The plasma was transferred to sterile tubes stored at ≤−10° C. until analysis. Serial plasma samples were obtained from each animal at pre-dose and 5 minutes, 30 minutes, 1 hour, 2 hours, 4 hours, 6 hours, 8, hours, 24 hours, 48 hours, and 72 hours post-dose. CSF-1 and CSF-1:Fc fusion protein levels were quantitated in plasma using ELISA assays.

[4] = tested on: csf1r-EGFP (MacGreen) mice; assay: Fc-CSF-1 injected subcutaneously into csf1r-EGFP mice on 4 days, sacrificed on the 5th day; format: in vivo, mouse; settings: 1 mg/kg
Procedure: Mice were injected with Fc-CSF-1 subcutaneously on each of 4 days and sacrificed on the 5th day. The mice were csf1r-EGFP (MacGreen) mice on the C57BI/6 background. Tissue processing and immunohistochemistry were carried out as described in (Alikhan et al Am J. Pathol. 179, 1243-1256, 2011 and Macdonald et al Blood. 116, 3955-3963, 2010). A comparison of the effect of recombinant pig CSF-1 or Fc-CSF-1 on the proliferation of mouse bone marrow cells or the Ba/F3 CS1R reporter cell line using the assay described in Gow et al Cytokine.

[5] = day 2 following partial hepatectomy, vs controls

Row | Molecule | hepatocyte proliferation [1] | liver weight to body weight ratio [1] | serum ALT (marker of liver injury) [1] | serum ALT (marker of liver injury) ([2]; CSF1 receptor blockade, 180 mg/kg via gavage) | hepatocyte proliferation ([2]; CSF1 receptor blockade, 180 mg/kg via gavage, Day 3) | gene expression of oncostatin M (OSM) [2, 5] | gene expression of pro-regenerative cytokine 116 [2, 5] | urokinase receptor (UR) expression ([2]; following partial hepatectomy, vs controls) | peak plasma level [3] | time by which completely cleared from plasma [3] [h] | total body weight [4]
1 | COc1ccc(COc2ccc(Cc3cnc(N)nc3N)cc2OC)cc1 [GW2580, reference compound] | impaired | reduced | raised | raised | markedly impaired | significant reduction | significant reduction | reduction | – | – | –
2 | B1 | – | – | – | – | – | – | – | – | around 100 ng/ml | ≤ 20 | no effect
